The series in a line: High dosages of IRPs in mice (weight, histology). The series is classed as in vivo, BALB/c mice. Particulars: ISS control (5 mg/kg). How it is done: To test the activity of IRPs at high dosages in mice, IRPs or a control (saline) were subcutaneously administered to BALB/c mice at a dosage of 4 mg/kg, 20 mg/kg, 50 mg/kg, or 100 mg/kg on days 1, 4, 7, and 10 (n=5 per group). Mice were weighed prior to administration and on days 2, 4, 7, 9, and 11. Serum cytokines were assayed at two hours post the first and third injections and 24 hours post the fourth injection. Organs were harvested at the end of the study, and organ weights and tissues levels of the oligonucleotides were determined. In addition, histological evaluation of the liver, kidney, and heart was performed.
Mice were weighed prior to administration and on days 1, 3, 4, 6, 7, and 9. Organs were harvested at the end of the study, and organ weights and tissues levels of the oligonucleotides were determined. In addition, histological evaluation of the liver, kidney, and heart was performed.

Marks after values point to notes of the source that are not given here.

Take “5′-TGACTGTGAACGTTCGAGATGA-3′ [SEQ ID NO:157, reference compound]”: the “Heart: Chronic inflammation, number of animals” value came out at 2 and the “Heart: Mineralization, number of animals” value is listed as 1. In addition, for the setting “0 = no change to 4 = severe”, the “Heart: Chronic inflammation, mean severity score” value is given as 2.0; the “Heart: Mineralization, mean severity score” value is reported as 4.0; the “Liver: Liver changes, mean severity score” value is 2.0; the “Liver: Mixed cell infiltration, mean severity score” value came out at 3.0. For the same substance, the “Right Kidney: Tubular basophilia, mean severity score” value (0 = no change to 4 = severe) is given as 2.0. Moreover, where the note is “6 animals”, the “Liver: Liver changes, number of animals” value is recorded as 6; the “Liver: Mixed cell infiltration, number of animals” value is 6; the “Liver: No significan changes, number of animals” value is on record as 0; the “Right Kidney: No significant changes, number of animals” value worked out at 5. Also, under “6 animals”, the “Right Kidney: Tubular basophilia, number of animals” value is on record as 1 and the “Right Kidney: Tubular changes, number of animals” value stood at 0. The “Heart: No significant changes, number of animals” value (tissue missing in two animals) is recorded as 1**.

These data come from patent US8940310B2, “Methods of treatment using TLR7 and/or TLR9 inhibitors” (Dynavax Technologies Corporation, priority 2010, dated 2015).
